Source: patent publication US20060135569A1, “Use of benzisoselenazolone compounds against ischemic myocardial damage” (priority 2002, published 2006)
Marks after values point to notes of the source that are not given here.

What was measured:
[1] = test system: arrhythmia caused by ischemia/reperfusion insults in anaesthetic rats; assay: Ischemia/reperfusion arrhythmia in anaesthetic rats, intravenous injection; format: in vivo, rat; details: for Occurrence time / VE Duration time / VE Incidence (%) / VF Duration time / VF Incidence (%) / VT Duration time / VT Incidence (%): intravenously injected per table title
Source text: (1) Protective Effects of the Tested Compounds on Myocardial Insults in Rats after Intravenously Injection
(§1) Arrhythmic potency induced by myocardial insults was used to assess the potential protective effect of the compounds.

[2] = test system: arrhythmia induced by ischemia/reperfusion insults in anesthetized rats; assay: Ischemia/reperfusion arrhythmia in anesthetized rats, oral administration; format: in vivo, rat
Description: IMM-004 and IMM-127 were dissolved in the solution of ethanol and PEG (ethanol: PEG (v/v)=1:9). Rats were orally administrated the compounds at volume of 10 ml/Kg. The left anterior descending coronary artery was ligated in rats for 15 min at 60 min after the administration, and then the reprefusion was achieved.
as §1

[3] = test system: TA97; TA98; TA100; TA102; assay: Ames (mutagenesis) test, overall result in 4 strains; format: cell-based; details: 0.5, 5, 50 and 500 μg/dish
Description: (§2) To assess the mutagenic effects of 5 compounds (IMM-004; IMM-065; IMM-127; IMM-128; IMM-313), the Ames test was performed in 4 strains (TA97; TA98; TA100; TA102). The experiment was conducted with compounds at 4 concentration levels (0.5, 5, 50 and 500 μg/dish). […]

[4] = test system: TA97; assay: Ames test, strain TA97; format: cell-based
Description: as §2

[5] = test system: TA98; assay: Ames test, strain TA98; format: cell-based
Description: as §2

[6] = test system: TA100; assay: Ames test, strain TA100; format: cell-based
Description: as §2

[7] = test system: TA102; assay: Ames test, strain TA102; format: cell-based
Description: as §2

[8] = test system: KM mice; assay: Acute toxicity study in mice; format: in vivo; details: all dose groups, mice
Description: Acute toxicity studies were performed with IMM-004 and IMM-127 (synthesized by ourselves). The compound was provided as powder, which was milled and suspended in 0.5% carboxymethylcellulose sodium (CMC—Na) before use.
Male KM mice weighting 19±2 g were housed for an adaptation before use. Mice were randomly divided into groups, and each group consists of 10 animals. Mice were all fasted for 14 hrs before the administration of the tested compounds. Activity of mice in high dose group was reduced 30 min after the administration. 24 h after the administration, mice in each group were restored to normal. Mice were observed daily for a period of 7 days after the administration.

[9] = 3 mg/Kg intravenous (femoral vein), rats

Which results are given for `O=c1c2cc(Cl)ccc2[se]n1-c1ccccn1` [IMM-004, 5-chloro-2-(2-pyridyl)-1,2-benz-isoselenazol-3(2H)-one]?
incidence and duration of VT, VF, VE / ventricular arrhythmic [1, 9]: all reduced; latency of ventricular arrhythmic [1, 9]: significantly prolonged; Occurrence time ([1]; 10 mg/Kg): 9.3 ± 10.0 s; VE Duration time ([1]; 10 mg/Kg): 4.7 ± 12.9 s; VE Incidence (%) ([1]; 10 mg/Kg): 100%; VF Duration time ([1]; 10 mg/Kg): 8.8 ± 7.4 s; VF Incidence (%) ([1]; 10 mg/Kg): 22.2%; VT Duration time ([1]; 10 mg/Kg): 30.2 ± 17.6 s; VT Incidence (%) ([1]; 10 mg/Kg): 88.9%; Occurrence time ([1]; 30 mg/Kg): 19.6 ± 24.1 s; VE Duration time ([1]; 30 mg/Kg): 0.4 ± 1.3 s; VE Incidence (%) ([1]; 30 mg/Kg): 66.7%; VF Duration time ([1]; 30 mg/Kg): 3.3 ± 5.7 s; VF Incidence (%) ([1]; 30 mg/Kg): 11.1* %; VT Duration time ([1]; 30 mg/Kg): 17.0 ± 12.6 s; VT Incidence (%) ([1]; 30 mg/Kg): 44.4** %; Occurrence time ([1]; 100 mg/Kg): 16.4 ± 25.1 s; VE Duration time ([1]; 100 mg/Kg): 5.5 ± 10.2 s; VE Incidence (%) ([1]; 100 mg/Kg): 66.7%; VF Duration time ([1]; 100 mg/Kg): 3.9 ± 6.8 s; VF Incidence (%) ([1]; 100 mg/Kg): 33.3%; VT Duration time ([1]; 100 mg/Kg): 22.7 ± 19.4 s; VT Incidence (%) ([1]; 100 mg/Kg): 55.5* %; protective effect: incidence/duration of VT, VF, duration of ventricular arrhythmic ([2]; 10 mg/Kg orally, rats): No protective effect; Occurrence time ([2]; 10 mg/Kg p.o.): 9.3 ± 10.0 s; VE Duration time ([2]; 10 mg/Kg p.o.): 4.7 ± 12.9 s; VE Incidence (%) ([2]; 10 mg/Kg p.o.): 100%; VF Duration time ([2]; 10 mg/Kg p.o.): 8.8 ± 7.4 s; VF Incidence (%) ([2]; 10 mg/Kg p.o.): 22.2%; VT Duration time ([2]; 10 mg/Kg p.o.): 30.2 ± 17.6 s; VT Incidence (%) ([2]; 10 mg/Kg p.o.): 88.9%; protective effect: incidence/duration of VT, VF, duration of ventricular arrhythmic ([2]; 30 mg/Kg orally, rats): all reduced; Occurrence time ([2]; 30 mg/Kg p.o.): 19.6 ± 24.1 s; VE Duration time ([2]; 30 mg/Kg p.o.): 0.4 ± 1.3 s; VE Incidence (%) ([2]; 30 mg/Kg p.o.): 66.7%; VF Duration time ([2]; 30 mg/Kg p.o.): 3.3 ± 5.7 s; VF Incidence (%) ([2]; 30 mg/Kg p.o.): 11.1* %; VT Duration time ([2]; 30 mg/Kg p.o.): 17.0 ± 12.6 s; VT Incidence (%) ([2]; 30 mg/Kg p.o.): 44.4** %; Occurrence time ([2]; 100 mg/Kg p.o.): 16.4 ± 25.1 s; VE Duration time ([2]; 100 mg/Kg p.o.): 5.5 ± 10.2 s; VE Incidence (%) ([2]; 100 mg/Kg p.o.): 66.7%; VF Duration time ([2]; 100 mg/Kg p.o.): 3.9 ± 6.8 s; VF Incidence (%) ([2]; 100 mg/Kg p.o.): 33.3%; VT Duration time ([2]; 100 mg/Kg p.o.): 22.7 ± 19.4 s; VT Incidence (%) ([2]; 100 mg/Kg p.o.): 55.5* %; protective effect: incidence/duration of VT, duration of ventricular arrhythmic ([2]; 100 mg/kg orally, rats): all reduced; mutagenic effect (Ames test) [3]: No evidence for a mutagenic effect; TA97 +S9 ([4]; 0.5 μg/dish): 55.33 ± 24.36; TA97 −S9 ([4]; 0.5 μg/dish): 54.33 ± 4.78; TA97 +S9 ([4]; 5 μg/dish): 80.67 ± 8.58; TA97 −S9 ([4]; 5 μg/dish): 54.67 ± 4.99; TA97 +S9 ([4]; 50 μg/dish): 204.67 ± 29.41; TA97 −S9 ([4]; 50 μg/dish): 47.00 ± 5.72; TA97 +S9 ([4]; 500 μg/dish): 67.33 ± 36.59; TA97 −S9 ([4]; 500 μg/dish): 55.50 ± 3.50; TA98 +S9 ([5]; 0.5 μg/dish): 70.67 ± 6.85; TA98 −S9 ([5]; 0.5 μg/dish): 56.33 ± 1.25; TA98 +S9 ([5]; 5 μg/dish): 48.33 ± 11.95; TA98 −S9 ([5]; 5 μg/dish): 29.33 ± 0.94; TA98 +S9 ([5]; 50 μg/dish): 60.67 ± 26.64; TA98 −S9 ([5]; 50 μg/dish): 19.67 ± 3.29; TA98 +S9 ([5]; 500 μg/dish): 55.33 ± 15.92; TA98 −S9 ([5]; 500 μg/dish): 24.67 ± 4.71; TA100 +S9 ([6]; 0.5 μg/dish): 191.33 ± 44.25; TA100 −S9 ([6]; 0.5 μg/dish): 121.00 ± 8.52; TA100 +S9 ([6]; 5 μg/dish): 215.33 ± 23.68; TA100 −S9 ([6]; 5 μg/dish): 58.33 ± 29.39; TA100 +S9 ([6]; 50 μg/dish): 126.00 ± 31.79; TA100 −S9 ([6]; 50 μg/dish): 89.67 ± 14.70; TA100 +S9 ([6]; 500 μg/dish): 160.00 ± 21.33; TA100 −S9 ([6]; 500 μg/dish): 78.33 ± 13.52; TA102 +S9 ([7]; 0.5 μg/dish): 328.67 ± 26.39; TA102 −S9 ([7]; 0.5 μg/dish): 164.67 ± 62.66; TA102 +S9 ([7]; 5 μg/dish): 250.67 ± 7.54; TA102 −S9 ([7]; 5 μg/dish): 218.67 ± 23.79; TA102 +S9 ([7]; 50 μg/dish): 297.33 ± 24.07; TA102 −S9 ([7]; 50 μg/dish): 52.67 ± 6.59; TA102 +S9 ([7]; 500 μg/dish): 284.00 ± 64.27; TA102 −S9 ([7]; 500 μg/dish): 16.00 ± 5.89; mortality in the dose groups [8]: no mortality
